Among the data in US20240182453A1, “NOVEL SUBSTITUTED PYRAZINE-CARBOXAMIDE DERIVATIVES” (Boehringer Ingelheim International GmbH, priority 2022, published 2024) are IC50 values, retold here.

pIC50: −log10 of the molar value.

The test deals with human metabotropic Glutamate 4 receptor (mGluR4) (Homo sapiens (Human), UniProt Q14833). The experiment in a line: Assay A: in vitro testing of mGluR4 potency (glutamate-induced cAMP lowering, HTRF cAMP). Format: cell-based. The settings on record: HEK293 cells overexpressing human mGluR4; 10 uM L-glutamic acid, 1 uM forskolin; compounds of the present invention. The method in brief:
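HEK293 cells overexpressing human mGluR4 treated 30 min at room temperature with compound plus 10 uM L-glutamate, 1 uM forskolin, 0.5 mM IBMX, 0.1% BSA, 1% DMSO. cAMP read by HTRF (665/615 nm ratio), normalized to glutamate (100%) and no-glutamate (0%) controls as percent of control.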

human metabotropic Glutamate 4 receptor (mGluR4), sequence (Q14833 33-912): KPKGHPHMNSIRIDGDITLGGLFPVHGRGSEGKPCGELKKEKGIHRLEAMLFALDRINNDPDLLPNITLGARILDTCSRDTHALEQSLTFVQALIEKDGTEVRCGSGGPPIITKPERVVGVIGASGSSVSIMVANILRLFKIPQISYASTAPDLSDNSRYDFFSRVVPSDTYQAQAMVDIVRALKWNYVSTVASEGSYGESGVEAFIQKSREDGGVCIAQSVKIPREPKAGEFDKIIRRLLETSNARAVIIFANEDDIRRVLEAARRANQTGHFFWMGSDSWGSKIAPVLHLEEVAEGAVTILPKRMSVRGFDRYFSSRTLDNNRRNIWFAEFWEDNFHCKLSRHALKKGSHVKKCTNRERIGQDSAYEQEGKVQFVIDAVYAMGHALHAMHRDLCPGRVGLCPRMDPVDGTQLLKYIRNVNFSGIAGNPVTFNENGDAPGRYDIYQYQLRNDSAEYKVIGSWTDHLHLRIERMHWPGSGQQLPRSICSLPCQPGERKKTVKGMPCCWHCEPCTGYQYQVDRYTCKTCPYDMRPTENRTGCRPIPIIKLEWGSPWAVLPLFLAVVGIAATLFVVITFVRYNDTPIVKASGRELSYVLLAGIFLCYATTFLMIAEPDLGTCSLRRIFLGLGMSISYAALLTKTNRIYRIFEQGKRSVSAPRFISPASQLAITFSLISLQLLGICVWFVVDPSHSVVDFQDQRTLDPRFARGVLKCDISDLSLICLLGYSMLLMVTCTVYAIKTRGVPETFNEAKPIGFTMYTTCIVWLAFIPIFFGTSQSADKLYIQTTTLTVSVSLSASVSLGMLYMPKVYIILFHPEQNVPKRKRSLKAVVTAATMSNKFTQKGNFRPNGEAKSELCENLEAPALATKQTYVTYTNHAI

As for `Cc1cnc(C(=O)N[C@H](c2nc3c(C)c(C#N)ccc3n2C)C2CC2)cn1` [Example 45, N-[(S)-(5-cyano-1,4-dimethyl-1H-1,3-benzodiazol-2-yl)(cyclopropyl)methyl]-5-methylpyrazine-2-carboxamide], the negative-log IC50 (pIC50) – broadly, the negative decadic logarithm of the IC50, by convention in mol/L – was 7.59.

In the case of `CCn1c([C@@H](NC(=O)c2cnc(C)cn2)C2CC2)nc2cc(OC(F)(F)F)ccc21` [Example 46, N-[(S)-cyclopropyl[1-ethyl-5-(trifluoromethoxy)-1H-1,3-benzodiazol-2-yl]methyl]-5-methylpyrazine-2-carboxamide], the negative logarithm of the IC50 (pIC50) was 8.70.

The compound `Cc1cnc(C(=O)N[C@H](c2nc3cc(Cl)ccc3n2C)C2CC2)cn1` [Example 47, N-[(S)-(5-chloro-1-methyl-1H-1,3-benzodiazol-2-yl)(cyclopropyl)methyl]-5-methylpyrazine-2-carboxamide] gave a pIC50 of 8.05. Against the preceding compound, the pIC50 is 0.65 log units lower.

Turning to `COCCn1c([C@@H](NC(=O)c2cnc(C(F)F)cn2)[C@H]2CCOC2)nc2cc(F)ccc21` [Example 48, 5-(difluoromethyl)-N-[(S)-[5-fluoro-1-(2-methoxyethyl)-1H-1,3-benzodiazol-2-yl][(3R)-oxolaN-3-yl]methyl]pyrazine-2-carboxamide], the pIC50 is 7.68.

`CCn1c([C@@H](NC(=O)c2cnc(C)cn2)C2CC2)nc2cc(OC(F)F)ccc21` [Example 49, N-[(S)-cyclopropyl[5-(difluoromethoxy)-1-ethyl-1H-1,3-benzodiazol-2-yl]methyl]-5-methylpyrazine-2-carboxamide] gave a pIC50 of 8.15.

Regarding `CCn1c([C@@H](NC(=O)c2cnc(C)cn2)C(C)(C)O)nc2cc(F)c(F)cc21` [Example 50, N-[(1R)-1-(1-ethyl-5,6-difluoro-1H-1,3-benzodiazol-2-yl)-2-hydroxy-2-methylpropyl]-5-methylpyrazine-2-carboxamide], the negative-log IC50 (pIC50) was 7.62. This pIC50 is 0.53 log units lower than that of the compound before.

As to `Cc1cnc(C(=O)N[C@H](c2nc3cc(F)ccc3n2C)C2CC2)cn1` [Example 51, N-[(S)-cyclopropyl(5-fluoro-1-methyl-1H-1,3-benzodiazol-2-yl)methyl]-5-methylpyrazine-2-carboxamide], the negative-log IC50 (pIC50) was 7.55.

In turn, `Cc1cnc(C(=O)N[C@H](c2nc3cc(Br)c(F)cc3n2C)C2CC2)cn1` [Example 52, N-[(S)-(5-bromo-6-fluoro-1-methyl-1H-1,3-benzodiazol-2-yl) (cyclopropyl)methyl]-5-methylpyrazine-2-carboxamide] gave a negative-log IC50 (pIC50) of 8.30.

On to `COCCn1c([C@@H](NC(=O)c2cnc(C(F)F)cn2)[C@H]2CCCO2)nc2cc(OC(F)(F)F)ccc21` [Example 53, 5-(difluoromethyl)-N-[(R)-[1-(2-methoxyethyl)-5-(trifluoromethoxy)-1H-1,3-benzodiazol-2-yl][(2R)-oxolaN-2-yl]methyl]pyrazine-2-carboxamide], for which the negative logarithm of the IC50 (pIC50) was 8.22.

The compound `COCCn1c([C@@H](NC(=O)c2cnc(C)cn2)C2CC2)nc2c(C)c(Br)ccc21` [Example 54, N-[(S)-[5-bromo-1-(2-methoxyethyl)-4-methyl-1H-1,3-benzodiazol-2-yl](cyclopropyl)methyl]-5-methylpyrazine-2-carboxamide] had a negative-log IC50 (pIC50) of 9.00. Compared with the last compound, the pIC50 is 0.78 log units higher.

`Cn1c([C@@H](NC(=O)c2cnc(C(F)F)cn2)C2CC2)nc2cc(Cl)ccc21` [Example 55, N-[(S)-(5-chloro-1-methyl-1H-1,3-benzodiazol-2-yl)(cyclopropyl)methyl]-5-(difluoromethyl)pyrazine-2-carboxamide]: the pIC50 is 8.15.

Take `CCn1c([C@@H](NC(=O)c2cnc(C(F)F)cn2)C(C)(C)O)nc2cc(F)c(F)cc21` [Example 57, 5-(difluoromethyl)-N-[(1R)-1-(1-ethyl-5,6-difluoro-1H-1,3-benzodiazol-2-y1)-2-hydroxy-2-methylpropyl]pyrazine-2-carboxamide]: the pIC50 was 7.72.

For `COCCn1c([C@@H](NC(=O)c2cnc(C)cn2)[C@@H]2CCCO2)nc2cc(OC(F)(F)F)ccc21` [Example 58, N-[(R)-[1-(2-methoxyethyl)-5-(trifluoromethoxy)-1H-1,3-benzodiazol-2-yl][(2S)-oxolan-2-yl]methyl]-5-methylpyrazine-2-carboxamide], the negative logarithm of the IC50 (pIC50) was 8.40. This pIC50 is 0.68 log units higher than that of the compound before.

Consider `Cc1cnc(C(=O)N[C@H](c2nc3cc(C(F)(F)F)ccc3n2C)[C@@H](C)OC(F)F)cn1` [Example 61, N-[(1R,2R)-2-(difluoromethoxy)-1-[1-methyl-5-(trifluoromethyl)-1H-1,3-benzodiazol-2-yl]propyl]-5-methylpyrazine-2-carboxamide], for which the negative logarithm of the IC50 (pIC50) was 8.10.

Consider `COCCn1c([C@@H](NC(=O)c2cnc(C)cn2)[C@H]2CCOC2)nc2cc(OC(F)(F)F)ccc21` [Example 62, N-[(S)-[1-(2-methoxyethyl)-5-(trifluoromethoxy)-1H-1,3-benzodiazol-2-yl][(3R)-oxolan-3-yl]methyl]-5-methylpyrazine-2-carboxamide], for which the pIC50 is 8.05.

Compound `Cc1cnc(C(=O)N[C@H](c2nc3ccc(C(F)(F)F)cc3n2C)C2CC2)cn1` [Example 63, N-[(S)-cyclopropyl[1-methyl-6-(trifluoromethyl)-1H-1,3-benzodiazol-2-yl]methyl]-5-methylpyrazine-2-carboxamide] gave a negative logarithm of the IC50 (pIC50) of 7.85.

In the case of `Cc1cnc(C(=O)N[C@H](c2nc3cc(F)ccc3n2C)C(C)C)cn1` [Example 64, N-[(1S)-1-(5-fluoro-1-methyl-1H-1,3-benzodiazol-2-yl)-2-methylpropyl]-5-methylpyrazine-2-carboxamide], the pIC50 was 7.72.

In turn, `CCn1c([C@@H](NC(=O)c2cnc(C(F)F)cn2)C(C)(C)O)nc2cc(F)ccc21` [Example 65, 5-(difluoromethyl)-N-[(1R)-1-(1-ethyl-5-fluoro-1H-1,3-benzodiazol-2-yl)-2-hydroxy-2-methylpropyl]pyrazine-2-carboxamide] had a negative logarithm of the IC50 (pIC50) of 7.80.

For the compound `COCCn1c([C@@H](NC(=O)c2cnc(C)cn2)C2CC2)nc2cc(OC(F)F)c(F)cc21` [Example 67, N-[(S)-cyclopropyl[5-(difluoromethoxy)-6-fluoro-1-(2-methoxyethyl)-1H-1,3-benzodiazol-2-yl]methyl]-5-methylpyrazine-2-carboxamide], the pIC50 is 8.00.

Regarding `Cc1cnc(C(=O)N[C@H](c2nc3cc(Cl)ccc3n2C)[C@@H]2CCCO2)cn1` [Example 68, N-[(R)-(5-chloro-1-methyl-1H-1,3-benzodiazol-2-yl)[(2S)-oxolan-2-yl]methyl]-5-methylpyrazine-2-carboxamide], the pIC50 is 7.72.

Consider `Cc1cnc(C(=O)N[C@H](c2nc3cc(F)ccc3n2CC(F)F)[C@@H](C)OC(F)F)cn1` [Example 69, N-[(1R,2R)-1-[1-(2,2-difluoroethyl)-5-fluoro-1H-1,3-benzodiazol-2-y1]-2-(difluoromethoxy)propyl]-5-methylpyrazine-2-carboxamide], for which the negative logarithm of the IC50 (pIC50) was 7.74. The pIC50 values of the last two compounds are within 0.2 log units of each other.

Consider `COCCn1c(C(NC(=O)c2cnc(C)cn2)C2CCCO2)nc2cc(C(F)(F)F)ccc21` (stereo not shown) [Example 71-3, N-{[1-(2-methoxyethyl)-5-(trifluoromethyl)-1H-1,3-benzodiazol-2-yl](oxolan-2-yl)methyl}-5-methylpyrazine-2-carboxamide], for which the negative-log IC50 (pIC50) was 7.21.

The compound `Cc1cnc(C(=O)N[C@H](c2nc3cc(Cl)ccc3n2C)C(C)C)cn1` [Example 72, N-[(1S)-1-(5-chloro-1-methyl-1H-1,3-benzodiazol-2-yl)-2-methylpropyl]-5-methylpyrazine-2-carboxamide] showed a negative-log IC50 (pIC50) of 8.10.

`Cc1cnc(C(=O)N[C@H](c2nc3cc(F)ccc3n2C2CC2)C2CC2)cn1` [Example 73, N-[(S)-cyclopropyl (1-cyclopropyl-5-fluoro-1H-1,3-benzodiazol-2-yl)methyl]-5-methylpyrazine-2-carboxamide]: the negative-log IC50 (pIC50) was 7.74.

As to `Cc1cnc(C(=O)N[C@H](c2nc3cc(OC(F)(F)F)ccc3n2C)C2CC2)cn1` [Example 74, N-[(S)-cyclopropyl[1-methyl-5-(trifluoromethoxy)-1H-1,3-benzodiazol-2-yl]methyl]-5-methylpyrazine-2-carboxamide], the negative-log IC50 (pIC50) is 8.22.

Turning to `Cc1cnc(C(=O)N[C@H](c2nc3cc(Cl)ccc3n2C)[C@@H]2CC2(F)F)cn1` [Example 76, N-[(S)-(5-chloro-1-methyl-1H-1,3-benzodiazol-2-yl)[(1S)-2,2-difluorocyclopropyl]methyl]-5-methylpyrazine-2-carboxamide], the negative-log IC50 (pIC50) was 7.92. This pIC50 is 0.30 log units lower than that of the compound before.

On to `COCCn1c([C@@H](NC(=O)c2cnc(C(F)F)cn2)[C@H]2CCOC2)nc2cc(OC(F)(F)F)ccc21` [Example 77, 5-(difluoromethyl)-N-[(S)-[1-(2-methoxyethyl)-5-(trifluoromethoxy)-1H-1,3-benzodiazol-2-yl][(3R)-oxolan-3-yl]methyl]pyrazine-2-carboxamide], for which the negative logarithm of the IC50 (pIC50) is 7.92.

In turn, `Cc1cnc(C(=O)N[C@H](c2nc3cc(OC(F)(F)F)ccc3n2C)[C@@H]2CCCOC2)cn1` [Example 78, 5-methyl-N-[(S)-[1-methyl-5-(trifluoromethoxy)-1H-1,3-benzodiazol-2-yl][(3S)-oxan-3-yl]methyl]pyrazine-2-carboxamide] gave a negative-log IC50 (pIC50) of 7.89.

Consider `COCCn1c([C@@H](NC(=O)c2cnc(C)cn2)[C@@H](C)OC(F)F)nc2cc(OC(F)F)ccc21` [Example 79, N-[(1R,2R)-2-(difluoromethoxy)-1-[5-(difluoromethoxy)-1-(2-methoxyethyl)-1H-1,3-benzodiazol-2-yl]propyl]-5-methylpyrazine-2-carboxamide], for which the negative-log IC50 (pIC50) was 7.72.

On to `CO[C@H](C)[C@H](NC(=O)c1cnc(C(F)F)cn1)c1nc2cc(OC(F)F)ccc2n1C` [Example 80, N-[(1R,2R)-1-[5-(difluoromethoxy)-1-methyl-1H-1,3-benzodiazol-2-yl]-2-methoxypropyl]-5-(difluoromethyl)pyrazine-2-carboxamide], for which the pIC50 is 7.54.

In turn, `CCn1c([C@@H](NC(=O)c2cnc(C)cn2)C(C)(C)O)nc2cc(Cl)ccc21` [Example 81, N-[(1R)-1-(5-chloro-1-ethyl-1H-1,3-benzodiazol-2-yl)-2-hydroxy-2-methylpropyl]-5-methylpyrazine-2-carboxamide] had a negative logarithm of the IC50 (pIC50) of 7.85.
